The values below come from publication PMC6754133 (PLoS ONE, 2019).

Read-outs that look alike come from different tables or passages of the source.

For one data set, the system named is DAOY cells. Nature of the data set: Neurosphere formation assay. Type of data set: cell-based, human. Conditions: Homo sapiens, Daoy, 168 h, read-out: Inhibition of NS formation, wells.
For the next data set, the system named is Hh/SMO pathway. The experiment in a line: Gli-Luciferase functional assay, NIH 3T3 Gli-RE cells stimulated with ShhN. The data set is classed as cell-based. On the procedure:
After 24 hours, when the cells reached confluency, the culture medium was replaced with 80 μL per well of assay medium [Optimem ± 10 mM HEPES ± 1 mM Sodium Pyruvate + 1× MEM NEAA]. […] Then the cells were stimulated by addition of either ShhN-conditioned media or control media (DMEM±10%BCS) at a final concentration of 10%. Following incubation of the plate for at least 28 hours at 37°C, the cells were simultaneously lysed and supplemented with a luciferase substrate by addition of equal volume of Steady-Glo reagent (Promega, E2520) directly to the assay media. Plates were mixed by pipetting, centrifuged to eliminate foam, incubated for 10 minutes, and analyzed using Perkin Elmer Viktor X luminescence plate reader. The results were analyzed using a non-linear regression (Prism 6, GraphPad Software, La Jolla, CA). Data were normalized to the maximal response observed for ShhN-stimulated cells in the same experiment. A sigmoidal-dose response curve was used as a model for data analysis and IC50 value calculation.

The target in another data set is T1, mSMO (Mus musculus, UniProt P56726).
T1 construct: host or cells: HEK293T
T1 sequence (P56726 33-793): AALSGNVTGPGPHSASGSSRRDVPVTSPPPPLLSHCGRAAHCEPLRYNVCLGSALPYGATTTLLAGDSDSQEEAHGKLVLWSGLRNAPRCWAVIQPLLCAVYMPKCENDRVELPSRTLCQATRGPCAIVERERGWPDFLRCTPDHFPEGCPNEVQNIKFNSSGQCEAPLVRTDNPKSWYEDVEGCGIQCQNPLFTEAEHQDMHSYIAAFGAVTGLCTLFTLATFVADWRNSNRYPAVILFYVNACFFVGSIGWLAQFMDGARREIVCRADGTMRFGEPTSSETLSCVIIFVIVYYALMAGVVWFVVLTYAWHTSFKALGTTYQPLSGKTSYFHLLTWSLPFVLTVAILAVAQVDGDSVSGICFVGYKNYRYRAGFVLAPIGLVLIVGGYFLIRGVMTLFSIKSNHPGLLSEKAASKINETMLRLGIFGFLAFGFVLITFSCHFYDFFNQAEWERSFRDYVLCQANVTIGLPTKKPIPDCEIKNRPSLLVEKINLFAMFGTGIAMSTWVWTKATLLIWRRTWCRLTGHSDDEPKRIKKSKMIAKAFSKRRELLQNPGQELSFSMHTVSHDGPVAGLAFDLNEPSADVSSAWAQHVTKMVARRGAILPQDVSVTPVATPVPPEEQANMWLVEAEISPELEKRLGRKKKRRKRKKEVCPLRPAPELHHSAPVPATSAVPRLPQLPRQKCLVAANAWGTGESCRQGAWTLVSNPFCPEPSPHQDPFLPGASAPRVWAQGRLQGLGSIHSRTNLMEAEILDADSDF
Nature of the data set: BODIPY-Cyclopamine competition binding assay, flow cytometry, HEK293T cells transiently transfected with mSMO. Particulars: BODIPY-Cyclopamine 5 nM. As to the method:
Prior to transfection, cell culture media was replaced with DMEM + 10%FBS for mSMO transfection and with DMEM + 10%BCS for ShhN transfection. The transfected dish was incubated for approximately 24 hours at 37°C. For the production of ShhN conditioned medium, the culture medium from ShhN-transfected HEK293T cells was collected, aliquoted in single use 1.5 mL Eppendorf tubes and either used fresh or stored at -20°C.
HEK293T cells transiently transfected with mSMO were lifted with trypsin (0.25%) and replated at 6×10^4 cells in 80 μL DMEM + 10%FBS per well in a 96 well tissue-culture treated plate (Falcon, 353219). The plate was incubated at 37°C for 24 hours. Serial dilutions of test compounds (10x final concentrations) were prepared in culture media. 10 μL of diluted compounds or control media were added to the plate after which the plate was incubated at 37°C for 10 min. […] Following at least 1.5 hours incubation at 37°C in 5% CO2, cells were lifted by vigorous pipetting, transferred to conical bottom 96-well plates, and centrifuged at 400 × g for 5 min at 4°C. Supernatant was discarded, cells were re-suspended in 300 μL of PBS + 0.5% BSA (freshly prepared), and the plate was analyzed with Guava benchtop flow cytometer. The results were interpreted with FlowJo software (version v10.1). Dose response curves were constructed in Prism 6 (GraphPad Software, La Jolla, CA).

The conditions of data set [1]: cited from earlier work.
The next data set concerns Gli-1 mRNA. The experiment in a line: qRT-PCR of Gli-1 mRNA in MB-PDX xenograft tumors. Type of data set: in vivo, mouse. On the technique in general: Real-time PCR tracks product formation cycle by cycle.
The test system of data set [2] is firefly luciferase under control of cAMP response element (CRE). Nature of the data set: CRE-luciferase counter assay in HEK293s cells. The data set is classed as cell-based. Particulars: different concentrations. On the procedure: (a) The drugs were tested at different concentrations in HEK293s cells stably transfected with firefly luciferase under control of cAMP response element (CRE) (pGL4.29[luc2P/CRE/Hygro], Promega). […] Raw, non-normalized luminescence values are presented, to facilitate the assessment of the extent of inhibition. Shown is a single representative experiment out of the multiple experiments performed on different days. (Mean ± SD)

The subject of data set [3] is Platelet-derived growth factor receptor alpha (PGFRA_HUMAN). More on the design: method as in earlier work. Particulars: S2/S3 Table; ref [1] Davis MI et al., Nat Biotechnol. 2011; cited from earlier work.
Data set [4] has as its system Gli-target genes in MB-PDX cells. Nature of the data set: qRT-PCR of Gli-target genes in MB-PDX cells in vitro. The data set is classed as cell-based, human. Particulars: 10 uM in-vitro, 24 hours. From the text:
The results from three independent replicates were used for quantitative analysis and are represented in Fig 7c.
Y-axes show the relative expression levels of mRNA of target genes with respect to mRNA of GAPDH gene.

Data set [5] addresses Carbonic anhydrase 9 (CAH9_HUMAN). Conditions: S2/S3 Table; ref [2] Parkkila S et al., Bioorg Med Chem Lett. 2009; cited from earlier work.
The test system of the next data set is MB-PDX cells. Nature of the data set: cells. Particulars: Homo sapiens, 72 h, read-out: Cell viability assay IC50.
Data set [6] addresses Mitogen-activated protein kinase MLT (MLTK_HUMAN). More on the design: method as in earlier work. Particulars: S3 Table; ref [1] Davis MI et al., Nat Biotechnol. 2011; cited from earlier work.
Data set [7] relates to Platelet-derived growth factor receptor beta (PGFRB_HUMAN). More on the design: method as in earlier work. Conditions: S2/S3 Table; ref [1] Davis MI et al., Nat Biotechnol. 2011; cited from earlier work.
In data set [8] the test system is Mast/stem cell growth factor receptor Kit (KIT_HUMAN). Details: method as in earlier work. Particulars: S2/S3 Table; ref [1] Davis MI et al., Nat Biotechnol. 2011; cited from earlier work.

Protocol for DAOY cells: The final concentration of test compounds in the wells was 10 μM. Cells were incubated at 37 °C for at least seven days. After incubation percent of wells positive with neural stem cell-derived sphere colonies were calculated for each test condition and compared.
Protocol for Gli-1 mRNA: NSG mice, 4–6 weeks old, were injected subcutaneously at shoulders and flanks with 1 × 10^6 viable MB-PDX cells in 1:1 HBSS and gelatinous protein mixture Matrigel. […] The tumor size was measured three times a week with a caliper, and tumor volumes were calculated according to the formula (length × width × width × 0.5). At day 42 post-grafting, all mice were euthanized by isoflurane inhalation and cervical dislocation. Tumors were harvested and stored for qRT-PCR analysis.
Both post-vivo MB-PDX cells and Math1-Cre; ptch1-flox/flox cells were analyzed for Gli-1 mRNA expression. For that, total RNA was extracted from dissociated single cells using QIAGEN RNease Mini Kit and cDNA was prepared using 1μg RNA with iScript cDNA Synthesis Kit (Bio-Rad). SYBR green-based QPCR was performed using murine primers listed as below (GLI1, Forward 5’- [sequence]-3’, Reverse 5’-[sequence]-3’, GAPDH Forward 5'-[sequence] -3', Reverse 5'-[sequence]-3'). mRNA levels were normalized to GAPDH (dCt = Ct gene of interest–Ct GAPDH) and reported as relative mRNA expression (ddCt = 2-^(dCt sample–dCt control)) in fold change.

For the molecule `Cc1cn(-c2cc(NC(=O)c3ccc(C)c(Nc4nccc(-c5cccnc5)n4)c3)cc(C(F)(F)F)c2)cn1` [Nilotinib], in the data set on DAOY cells, the inhibition (in general, the relative decrease from the control value, in per cent) at 10 µM was greater than 90%. For the same molecule, the IC50 with Hh/SMO pathway (Mus musculus, NIH3T3, read-out: Hh/SMO pathway inhibition IC50, NIH3T3 Gli-RE cells, ShhN-conditioned media, n = 3) was 374 nM; in the data set on Hh/SMO pathway (read-out: Hh/SMO pathway inhibition IC50, NIH3T3 Gli-RE cells, ShhN-conditioned media, n = 3), 374 nM; at mSMO (HEK293T cells transfected with mSMO, n = 2, estimated, read-out: SMO binding IC50) it was 3.11 µM; in the data set with MB-PDX cells it was 5 µM. For the same molecule, the “Inhibition of ShhN-induced Hh signaling (in words)” value in the data set with Hh/SMO pathway (NIH 3T3 Gli-RE cells, ShhN stimulated) is “inhibited ShhN-induced Hh signaling in a dose-dependent manner”. Further, the “Span of concentration response curve” value with Hh/SMO pathway (data as percent of the maximum luminescence in the absence of antagonists, Fig 4) was 95.05. Also, the “Displacement of BODIPY-Cyclopamine from SMO (in words)” value at mSMO was “displace BODIPY-Cyclopamine”. The “Trough concentration, Cmin” value in data set [1] (clinically achievable concentrations) was 1.6 to 2.6 µM. Also, in [1] (human plasma), the “Average Cmin” value was 2.6 µM. Also, the maximum concentration (Cmax) (commonly the highest concentration seen after dosing) in data set [1] (human plasma) is 3.3 µM. For the same molecule, the “Trough concentration (Cmin) in human plasma” value in [1] (standard dosing of 400 mg twice daily) is 1.65 to 2.38 µM. Also, in the data set with Gli-1 mRNA, the “Gli-1 mRNA expression in tumors versus vehicle” value is listed as “significant reduction in the Gli-1 mRNA expression levels”. For the same molecule, the “Effect on CRE-driven luciferase activity (independent of SMO)” value in data set [2] is “lack of dose-dependent effect”. The “Kd/Ki Value” in [3] is 180 nM; in data set [5], 41.9 nM; in [6], 11 nM; in data set [7], 73 nM; in [8], 29 nM. Moreover, the “mRNA expression of Gli-target genes” value in data set [4] is “decreased expression of GLI1, NMYC, HHIP and BCL2 genes”.
